Measurements from patent US20230038360A1, “COMPOSITION FOR THE TREATMENT OF AMYLOID-BETA ASSOCIATED DISEASES” (BASF SE, priority 2019, published 2023).

Test system: C. elegans strain CL4176 expressing amyloid-beta peptide in muscle cells
Assay: Paralysis assay in transgenic C. elegans strain CL4176 expressing human Aβ1-42 peptide in muscle cells
Format: in vivo
Conditions: 1 mg/ml sodium propionate in nematode growth medium; after 24 hours; Aβ1-42 expression induced by temperature control
Excerpt: The biological model C. elegans was used to study the effects of sodium propionate on amyloid-beta associated pathology. C. elegans has become an excellent and well recognized model for studying neurodegenerative diseases (Zhou et al., 2011; Hekimi et al., 2011; Kaletsky & Murphy, 2010). This nematode contains 302 neuron cells with neurotransmitters and neuropeptides similar to the mammalian nervous system. All the basic functions in the worm such as development, feeding and movement are controlled by the nervous system. The model is particularly useful for studying amyloid-beta associated pathologies, since transgenic strains have been generated able to express the human Aβ1-42 peptide in muscle cells, producing a progressive paralysis in the nematodes as a result of toxic effects (Link, 1995). Therefore, this model using such strains is useful to study substances in view of their ability to reduce β-amyloid peptide cell toxicity.
In the present experiment, the transgenic C. elegans strain CL4176 expressing amyloid-beta peptide in muscle cells was used. The worms were cultured in plates with nematode growth medium (control) or in plates supplemented with different concentrations of sodium propionate (test substance). The expression of Aβ1-42 peptide was induced in the nematodes by temperature control, and the percentage of worms paralyzed was determined at different time points. […]

CCC(=O)[O-].[Na+] [sodium propionate]
number of paralyzed C. elegans compared to the untreated Aβ1-42 peptide expressing C. elegans: significantly lower
